Results: patent publication EP0652290A1, “Method for regulation of NF-kB” (YISSUM RESEARCH DEVELOPMENT COMPANY OF THE HEBREW …, priority 1993, dated 1995)
Where a SMILES comes first, the peptide text is derived from it. The star is where a group is joined. Cbz = O=C(OCc1ccccc1)*; CH2Cl = ClC*

What was measured:
NF-κB [1] = assay: NF-κB activation by EMSA, Jurkat cells stimulated with TNF-α; format: cell-based; details: for IC90: Homo sapiens, Jurkat cells, 30 min pretreatment, stimulated by TNF-α, EMSA, read-out: IC90, 90% inhibitory concentration, activation of NF-κB, Jurkat; for induction of NF-κB DNA-binding activity in response to PMA and TNF-α: Jurkat (TNF-α) and 70Z/3 (PMA) cell cultures, even at high concentrations
Experimental: The functional significance of the inducible decay of IκBα for activation of NF-κB was tested by exposure of cell cultures to various protease inhibitors. Six distinct serine protease inhibitors with chymotrypsin-like specificity efficiently prevent the induction of NF-κB DNA-binding activity in response to PMA and TNF-α (Table 1). Constitutive DNA-binding activities, including Oct-1, were not affected and no significant cell death was observed by a dye-exclusion assay and phase-contrast microscopy at inhibitor concentrations preventing […] activation. Leupeptin, antipain and the trypsin inhibitor tosyl-Lys-methylester were not effective, even at high concentrations.

IκBα [2] = assay: IκBα level and stability by Western blot in 70Z/3 cells; format: cell-based
NF-κB [3] = assay: HIV-LTR-Luc reporter activity in Jurkat cells; format: cell-based; details: stimulated 8 hours, PMA 10 ng/ml
Experimental: Jurkat cells were stimulated with the following reagents: (P), PMA (phorbol-12 myrislated 13-acetate), 10 ng/ml; (I), A23187 Ca⁺⁺ ionophore, 1µM; (3), anti-CD3 (OKT3), 5µg/ml; (28) anti-CD28 (monoclonal antibody 9.3), 3 µg/ml; (P/I), PMA + Ca⁺⁺ ionophore in IκBα transfected Jurkat cells; (NS) non-stimulated (0.1%, DMSO only).
The steps involved in the activation of NF-κB, include IκBα elimination through the appearance of the nuclear DNA binding activity, and the transcriptional activity. NF-κB activation was measured through the reporter activity of the HIV-LTR promoter, which is largely controlled by NF-κB in conjunction with the HIV Tat protein (Nabel, G., et al., Nature, 326:711-713, 1987). Jurkat cells were stimulated with the following reagents: (P), PMA (phorbol-12 myrislated 13-acetate), 10 ng/ml; (I), A23187 Ca⁺⁺ ionophore, 1µM; (3), anti-CD3 (OKT3), 5µg/ml; (28) anti-CD28 (monoclonal antibody 9.3), 3 µg/ml; (P/I), PMA + Ca⁺⁺ ionophore in IκBα transfected Jurkat cells; (NS) non-stimulated (0.1%, DMSO only). Jurkat cells were transfected by electroporation (Su, B., et al., supra) with 1 µg HIV-LTR-LUC (Israel, S., et al., Gene, 104:139-145, 1991) and 4 µg PBC-TAT. […] Following 30 hours transfection, the cells were stimulated for 8 hours and luciferase activity was determined using the Promega luciferase assay system.

IκBα [4] = assay: IκB degradation by Western blot in HeLa S3 or Hep G2 cells after TNFα, IL-1 or PMA; format: cell-based, Human; details: HeLa S3 or Hep G2, 4 hours pretreatment, 20 minutes
Experimental: Human HeLa S3 or Hep G2 cells were pretreated for 4 hours with the indicated peptide aldehyde prior to simulation with either TNFα (20ng/ml), IL-1(20 ng/ml) or PMA (100 µg/ml). The cells were harvested 20 minutes after induction and the extent of IκB degradation was examined via Western blot analysis using IκB specific antisera. FIGURE 7 summarizes the ability of related peptide aldehydes to block IκB degradation induced by a variety of agents which activate NF-κB. (+++) indicates greater than 85% inhibition, (++) indicates greater than 60% inhibition and (-) indicates no inhibition of IκB degradation was observed.

NF-κB [5] = assay: Dose response of NF-κB DNA binding (EMSA) in Hela cells stimulated with TNFα; format: cell-based
Experimental: Hela cells were pretreated for 5 hours with the indicated concentration of peptide aldehyde inhibitor or left untreated and then stimulated with TNFα (15ng/ml) for 20 minutes. The cells were then harvested for whole cell extract preparation. Extracts were analyzed for NF-κB DNA binding activity by electrophoretic mobility shift assay (EMSA) and relative IκBα protein levels were measured by Western blot analysis as shown in FIGURE 9.
IC₅₀ for ZLLF was 3.4 µM and 12.1 µM for AcLLnL.

NF-κB [6] = assay: NF-κB activation by EMSA, 70Z/3 cells stimulated with PMA, IL-1β or LPS; format: cell-based; details: for induction of NF-κB activity in response to PMA: 25 µM; for IC90: 30 min pretreatment, stimulated by PMA, EMSA, read-out: IC90, 90% inhibitory concentration, activation of NF-κB, 70Z/3
70Z/3 cells = assay: Inhibition of protein synthesis in 70Z/3 cells; format: cell-based; details: read-out: protein synthesis is inhibited
Experimental: 70Z/3 cells were treated with 25 µg/ml cycloheximide (Sigma). The protein synthesis inhibitor cycloheximide (CHX) activates NF-κB in 70Z/3 cells. At 10 µg/ml, protein synthesis is inhibited to 90% in 70Z/3 cells. Cell culture, extract preparation, EMSA, SDS-PAGE and Western blotting were as described above in Example 1. Densitometric scanning was done with a Howtek Scanmaster 3 and data analyzed by the software Quantity One Version 2.2.

IκBα [7] = assay: IκBα phosphorylation and degradation by Western blot, Jurkat cells stimulated with PMA and Ca⁺⁺ ionophore; format: cell-based; details: 25 µM TPCK or 400 ng/ml CsA 30 min, 100 µM PDTC 1 hour before PMA + Ca⁺⁺ ionophore
Experimental: Subcellular protein extracts were prepared essentially according to Beg, A.A. et al., supra. Following 20 minutes stimulation of Jurkat cells, cytosolic extracts (50 µg/point) were analyzed by Western blot, and nuclear extracts (5 µg/point) by EMSA, as described (Henkel, T., et al., Nature, 365:182-185, 1993).
Rabbit anti-IκBα was prepared against the GST-IκBα fusion protein by standard methods. The specifity of the antibodies was confirmed in competition assays using recombinant IκBα protein.
On the basis of the results in Example 3, phosphorylation of IκBα, in parallel to NF-κB activation, is induced according to the physiological requirements for T cell activation. Cell stimulation and extract preparation was as described above. […] Duration of Jurkat cell stimulation with PMA (10 ng/ml) and Ca⁺⁺ ionophore (1µM) was determined by Western blot analysis. […]
N-acetyl-Leu-Leu-Norleucinal (AcLLnL) is a reversible non-alkylating proteosome inhibitor not likely to disturb post-translation modification events. […] Anti-Rel A serum was a rabbit polyclonal antiserum prepared against the C-terminus portion of Rel A. In FIGURE 6a, cells were pretreated for 4 hours with 50 µg/ml AcLLnL, stimulated with PMA (10 ng/ml) and Ca⁺⁺ ionophore (1 µM) for the time intervals indicated and analyzed by Western blot. […]

NF-κB [8] = assay: NF-κB activation by TNF-α in various other cell lines; format: cell-based; details: various other cells lines

Molecule: O=c1oc(Cl)c(Cl)c2ccccc12 [3,4-Dichloroisocoumarin]
- IC90 (NF-κB [1]): 20 µM

Molecule: CCCCCCCCCCCCCC(=O)O[C@@H]1[C@@H](C)[C@@]2(O)[C@@H](C=C(CO)C[C@]3(O)C(=O)C(C)=C[C@@H]23)[C@@H]2C(C)(C)[C@]12OC(C)=O [PMA, phorbol 12-myristate 13-acetate]
- time after stimulation until most of the IκBα had decayed (IκBα [2]; 70Z/3 cells): ≤ 5 min
- half-life of IκBα (IκBα [2]; protein synthesis-arrested (CHX) 70Z/3 cells stimulated with PMA, phase of fastest decay): 1.5 min
- enhancement of reporter activity (HIV-LTR-Luc) over basal (NF-κB [3]): two-fold

Molecule: CC(=O)N[C@@H](CC(C)C)C(=O)N[C@@H](CC(C)C)C(=O)N[C@H](C=O)CCCNC(=N)N [Leupeptin]
- induction of NF-κB DNA-binding activity in response to PMA and TNF-α (NF-κB [1]): not effective

Molecule: COC(=O)C(CCCCN)NS(=O)(=O)c1ccc(C)cc1.Cl (stereo not drawn) [tosyl-Lys-methylester]
- induction of NF-κB DNA-binding activity in response to PMA and TNF-α (NF-κB [1]): not effective

Molecule: benzyloxycarbonyl-Leu-Leu-Phenylalaninal [ZLLF]
- rank as inhibitor of proteolysis of IκBα (IκBα [4]): the most potent inhibitor
- TNFα induced NF-κB activity (NF-κB [5]; 1µM to 200 µM, 5 hours pretreatment, TNFα 15ng/ml 20 minutes): inhibited TNFα induced NF-κB activity in a dose-dependent manner
- IC50 (NF-κB [5]; densitometric scanning of the EMSA and Western blots, TNFα, read-out: IC₅₀): 3.4 µM

Molecule: C[C@@H]1C[C@@H]([C@H](O)CC2CC(=O)NC(=O)C2)C(=O)[C@@H](C)C1 [CHX, cycloheximide]
- DNA binding of NF-κB (NF-κB [6]; 1 hour treatment of 70Z/3 cells with CHX, no PMA): induced only weakly
- half-life of IκBα (IκBα [2]; CHX-treated 70Z/3 cells, 25 µg/ml, no PMA): approximately 138 minutes
- inhibition at 10 µg/mL (70Z/3 cells): 90%

Molecule: Cc1ccc(S(=O)(=O)NC(CCCCN)C(=O)CCl)cc1 (stereo not drawn) [TLCK, Tosyl-Lys-chloromethylketone]
- IC90 (NF-κB [1]): 100 µM
- induction of NF-κB activity in response to PMA (NF-κB [6]; 70Z/3 cells): could not prevent
- IC90 (NF-κB [6]; 70Z/3 cells): 100 µM

Molecule: CC(=O)NC(Cc1ccccc1)C(=O)Oc1ccc2ccccc2c1 (racemic) [N-Acetyl-DL-Phe-β-Naphthylester (APNE), N-Acetyl-DL-Phe-β-Naphthylester]
- IC90 (NF-κB [1]): 200 µM

Molecule: CCOC(=O)[C@H](Cc1ccc(O)cc1)NC(=O)c1ccccc1 [N-Benzoyl-L-Tyr-ethylester (BTEE), N-Benzoyl-L-Tyr-ethylester]
- IC90 (NF-κB [1]): 1000 µM

Molecule: CC(C)C[C@H](NC(=O)OCc1ccccc1)C(=O)N[C@@H](Cc1ccc(O)cc1)C(=O)CCl [Benzyloxycarbonyl-Leu-Tyr-chloromethylketone] (Cbz-Leu-Tyr-CH2Cl)
- IC90 (NF-κB [6]; 70Z/3 cells): 10 µM

Molecule: Cc1ccc(S(=O)(=O)N[C@@H](Cc2ccccc2)C(=O)CCl)cc1 [TPCK, Tosyl-Phe-chloromethylketone]
- IC90 (NF-κB [1]): 20 µM
- induction of NF-κB activity in response to PMA (NF-κB [6]; 70Z/3 cells): fully inhibited
- IC90 (NF-κB [6]; 70Z/3 cells): 20 µM
- NF-κB activity when added after stimulation (NF-κB [6]; 70Z/3 cells, added after stimulation with PMA, IL-1 or LPS): did not strongly interfere
- activation of NF-κB by IL-1β and LPS (NF-κB [6]; 70Z/3 cells, treated 10 minutes before stimulation): prevented
- decay of IκB-α in response to PMA (IκBα [2]; 25 µM, 1 hour pretreatment, 70Z/3 cells): fully inhibited
- inducible degradation of IκBα (IκBα [7]): blocked both the inducible modification and degradation of IκBα completely
- inducible modification (phosphorylation) of IκBα (IκBα [7]): blocked both the inducible modification and degradation of IκBα completely
- activation of NF-κB by TNF-α (NF-κB [8]): prevented
